Where two headings read alike, the source gives them in different places. {Cy5} = Cy5 fluorescent dye attached at the strand end
Assays:
[1] = QD-FRET sensor progesterone titration in HEPES 1×; format: biochemical
Procedure: (§1) Fluorescent spectra were analyzed using MATLAB (Mathworks) and were fitted with a sum of 2 Gaussians (D=QD: FWHM=27 nm, λmax=607 nm; A=DNA-Cy5: FWHM=40 nm, λmax=669 nm). The area of each Gaussian was extracted and FD and FA are obtained respectively for the fluorescence of QD (donor) and Cy5 (acceptor).
Raw dose-response curves were obtained by plotting FA/FD as a function of the steroid concentration. Sensor output is the normalization of the fluorescent spectra of the donor and acceptor according to the following equation:
[formula] Where F=FA/FD, Fi is for [PRG]=i, Fmin stands for the average on 3 experiments of F for [PRG]=0 nM and Fmax stands for the average on 3 experiments of F for [PRG]=10 uM.
Non-normalized dose-response were fitted with Origin Pro 8 software with the non-linear equation:
Mathematically, the limit of detection in the signal domain (LD) is given by:LD=meanblank−3.3×σtest LD=meanblank−3.3×σtest where meanblank is the mean signal for a reagent blank and σtest is the pool standard deviation for all test samples in the dilution series, calculated as[9]:
Then the Limit of detection (LOD) is calculated using the parameters of the fit with the non-linear equation (XX) for y=LD:
(§2) Description for a typical experiment, using a molar ratio of QD/TF/DNA=1/4/18. QDs in (275 uL, 0.15 uM in HEPES 1×, pH 7.6 with 1% BSA) were mixed with AIY-his6 (275 uL, 0.6 uM in HEPES 1× pH 7.6) at room temperature for 45 min. Then, the double-stranded DNA labelled with a Cy5 fluorescent probe at the 3′ and 5′ ends (275 uL, 2.7 uM in HEPES 1× pH 7.6) was added to the mixture. After 30 min, 220 uL of HEPES 1× pH 7.5 and 330 uL of 5× binding buffer (25 mM MgCl2, 25% glycerol, and 250 mg/L Invitrogen™ UltraPure™ Salmon Sperm DNA in Tris-HCl 0.1M) were added and the mixture is left 15 more min at RT.
(§3) 50 uL of the sensor (QD/TF/DNA) was then splitted in 3×9 centrifuge tubes to which 10 uL of progesterone at the desired concentration is added. As such, the final concentration of QD/TF/DNA for the measurements is 25 nM/100 nM/450 nM. A 384 well plate was filled with 60 uL of each solution. The fluorescence intensity was monitored on a spectrofluorimeter from 535 nm to 800 nm exciting at 400 nm, equipped with a 450 nm long-pass filter in emission.

[2] = test system: Pimelobacter simplex PinR (AIY20223.2; SEQ ID NO: 1), his-tagged (AIY-his6); experiment: QD-FRET steroid sensor (QD-PinR + DNA-Cy5), steroid-induced TF-DNA unbinding; format: biochemical; conditions: sensor 3 in HEPES 1×; 0 to 10 uM steroid
Procedure: as §1
Raw dose-response curves were obtained by plotting FA/FD as a function of the steroid concentration. Sensor output is the normalization of the fluorescent spectra of the donor and acceptor according to the following equation: […]
Non-normalized dose-response were fitted with Origin Pro 8 software with the non-linear equation: […]
The cross-reactivity of progesterone regarding the different steroids was calculated with the following equation: […]
CdSe/CdS/ZnS QDs were coated with a zwitterionic polymer bearing histamine anchoring functions (P1, SI). Once the hydrophobic QDs were transferred into H2O using a biphasic ligand exchange, his-tagged TFs were self-assembled on the QD surface to produce the QD-TF. Addition of the double stranded, Cy5-labeled TF-binding sequence completed probe assembly as the oligo binds to the TF in the absence of progesterone (PRG). The molar ratios of the QD, TF, and DNA in the sensor were controlled through the stoichiometric ratios of the mixed parts.
Two fluorescent spectra were recorded, one from the QDs and one from the Cy5 due to the FRET.
First, the DNA1 (most binding sequence) has been used to build the first biosensor, named sensor 1. For this sensor, a ratio of QD/TF/DNA of 1/4/18 was chosen. […] In order to homogenize the fluorescent signals in between batches and different sensor variations, FA/FD was normalized to give the signal output. Signal output is then plotted against PRG concentration to give a dose-response curve (FIG. 9C) This curve was fitted with the non-linear equation XX to obtain the half-maximal inhibitory concentration (IC50) (Table 13).
as §2, §3

PinR = PinR (Nocardioides simplex (Pimelobacter simplex), UniProt A0A0A1DUF2); experiment: Cross-reactivity assay of steroids using sensor 3; format: biochemical; conditions: sensor 3, HEPES 1×, 0 to 10 uM of steroids
Sequence of PinR (A0A0A1DUF2 entry or part of it): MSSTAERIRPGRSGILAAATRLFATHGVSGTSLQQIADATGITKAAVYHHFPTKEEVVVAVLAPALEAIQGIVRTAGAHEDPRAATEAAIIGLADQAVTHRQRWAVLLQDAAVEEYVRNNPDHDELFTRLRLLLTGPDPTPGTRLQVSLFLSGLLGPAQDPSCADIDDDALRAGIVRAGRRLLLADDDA
Procedure: The cross-reactivity of progesterone regarding the different steroids was calculated with the following equation:
Description for a typical experiment, using a molar ratio of QD/TF/DNA=1/4/18.
50 uL of the sensor (QD/TF/DNA) was then splitted in 3×9 centrifuge tubes to which 10 uL of progesterone at the desired concentration is added. […] A 384 well plate was filled with 60 uL of each solution. The fluorescence intensity was monitored on a spectrofluorimeter from 535 nm to 800 nm exciting at 400 nm, equipped with a 450 nm long-pass filter in emission.

Pimelobacter simplex = experiment: Solvent and steroid exposure growth curves
Text: In order to identify steroid binding Transcription Factors, a whole transcriptome RNA sequencing (RNA-Seq) screen was developed (FIG. 7). The growth of Pimelobacter simplex bacteria was profiled with respect to the starting inoculation density, solvent toxicity, and the addition of steroids (FIG. 16). […] P. simplex bacteria were screened against the steroid solvents ethanol (EtOH) and dimethyl sulfoxide (DMSO). […] Steroid growth curves were similarly performed using a starting OD of 0.005 and constant solvent dosing with titrations of steroids. […] P. simplex bacteria were grown in the presence of 700 μM testosterone, 21.88 μM progesterone, 87.50 μM estrone, 21.88 μM 17β-estradiol, 21.88 μM hydrocortisone, or 175.00 μM aldosterone concentrations were selected for comparison.
In order to properly determine the doubling time of the strain, growth curves were performed. All growth curves were done in 100 μL per well volumes in 96 well flat clear bottom black polystyrene TC-treated microplates which were individually wrapped with a lid and sterile (Corning #3603). Measurements were done by an Infinite M200 Pro (TECAN) spectrophotometer at the temperature suited for P. simplex. Readings were performed over 96 cycles of 15 minutes each at 600 nm absorbance with 25 flashes in a 3×3 (XY-Line) type reads per well. In between reads there was orbital shaking at 150 rpm frequency for a total of 10 minutes. In order to characterize the growth alone, a ½ serial dilution of 9 concentrations from 0.5-0.0020 OD600 nm were prepared in the respective media. Then each concentration was measured as previously described using a microplate reader (TECAN) and normalized against a media background control in technical triplicate. Afterward, an appropriate starting concentration of cells was chosen with a substantially long lag-phase, linear log phase, and a plateau of stationary-phase.
Once an appropriate starting cell concentration was chosen, a secondary growth curve was performed to test the toxicity levels of the solvents used to dissolve steroids of interest. Since the steroids used are heavily hydrophobic, they often need to be dissolved in organic solvents such as DMSO or ethanol which are toxic to bacteria at high concentrations. P. simplex was incubated under microplate reader conditions previously mentioned at a starting OD determined by the first growth curve with DMSO, ethanol, or H2O at ½ serial dilutions for a total of eight concentrations (50-0.39%) tested in technical triplicate. Two controls were included per solvent; a positive control without solvent and a media control which allowed for appropriate normalization. Solvent exposure growth curves allowed for choosing the maximum amount of solvent concentration that strains would sustain while maintaining relative viability in order to determine a range of steroid concentrations which could be used.
A tertiary growth curve was performed to test the toxicity levels of steroid specific to P. simplex. The strain was incubated under microplate reader conditions previously mentioned at a starting OD determined by the first growth curve and the highest solvent concentration corresponding to the steroid of interest with steroid at ½ serial dilutions for a total of seven concentrations tested in singlet. Testosterone, progesterone, 17β-estradiol, hydrocortisone, and aldosterone were all dissolved in ethanol while estrone was dissolved in DMSO. Three controls were included for each steroid; a positive control with the highest tolerable solvent concentration (%), a positive control with media, and a media control which allowed for normalization. Steroid exposure growth curves allowed for choosing the maximum amount of steroid concentration that P. simplex would sustain while maintaining relative viability.

DNA3: Cy5-labelled PinR binding probe 5Cy5-GCCTAACTAGCCGTTCGGCAAGTAATTC-3Cy5 (SEQ ID NO: 28) (DNA, 5' {Cy5}, 3' {Cy5}, backbone and methylation of C not given here; hybridized with complementary strand to form double-stranded fluorescent oligo)
[Pro]min ([1]; DNA 3, QD/TF/DNA 1/1/2): 0.040 µM
[Pro]min ([1]; DNA 3, QD/TF/DNA 1/1/18): 0.072 µM
[Pro]min ([1]; DNA 3, QD/TF/DNA 1/2/2): 0.053 µM
[Pro]min ([1]; DNA 3, QD/TF/DNA 1/2/18): 0.070 µM
[Pro]min ([1]; DNA 3, QD/TF/DNA 1/4/2): 0.050 µM
[Pro]min ([1]; DNA 3, QD/TF/DNA 1/4/18): 0.040 µM
[Pro]min ([1]; DNA 3, QD/TF/DNA 1/10/18): 0.065 µM
[Pro]min ([1]; DNA 3, QD/TF/DNA 1/16/18): 0.075 µM
[Pro]min ([1]; QD/TF/DNA=1/4/18, [QD]=25 nM): 0.040 µM

CC(C)CCC[C@@H](C)[C@H]1CC[C@H]2[C@@H]3CC=C4C[C@@H](O)CC[C@]4(C)[C@H]3CC[C@]12C [CHL, Cholesterol]
cross-reactivity (in words) [2]: No cross-reactivity was observed
cross-reactivity (PinR): No cross-reactivity

DNA1: Cy5-labelled PinR binding probe 5Cy5-GCCTAACTAGCCGTTCGGCTAGTTATTC-3Cy5 (SEQ ID NO: 24) (DNA, 5' {Cy5}, 3' {Cy5}, backbone and methylation of C not given here; hybridized with complementary strand to form double-stranded fluorescent oligo)
[Pro]min ([1]; QD/TF/DNA=1/4/18, [QD]=25 nM): 0.073 µM

DNA2: Cy5-labelled PinR binding probe 5Cy5-GCCTAACTAGCCGATCGGCTAGTCATTC-3Cy5 (SEQ ID NO: 26) (DNA, 5' {Cy5}, 3' {Cy5}, backbone and methylation of C not given here; hybridized with complementary strand to form double-stranded fluorescent oligo)
[Pro]min ([1]; QD/TF/DNA=1/4/18, [QD]=25 nM): 0.051 µM

C[C@H](O)[C@H]1CC[C@H]2[C@@H]3CC[C@@H]4C[C@H](O[C@@H]5O[C@H](C(=O)O)[C@@H](O)[C@H](O)[C@H]5O)CC[C@]4(C)[C@H]3CC[C@]12C [PRE-glu, 5β-Pregnane-3α,20-α-diol glucuronide]
cross-reactivity (in words) [2]: No cross-reactivity was observed
cross-reactivity (PinR): No cross-reactivity

CCO [EtOH, ethanol]
highest solvent concentration that did not produce a physiological change in growth (Pimelobacter simplex): 0.70 % by volume

DNA4: Cy5-labelled PinR binding probe 5Cy5-CCTTAACTAGCCGTTCTGTTAGTTATT C-3Cy5 (SEQ ID NO: 30) (DNA CCTTAACTAGCCGTTCTGTTAGTTATTC; DNA, 5' {Cy5}, 3' {Cy5}, backbone and methylation of C not given here; hybridized with complementary strand to form double-stranded fluorescent oligo)
[Pro]min ([1]; DNA 4, QD/TF/DNA 1/1/4): 0.024 µM
[Pro]min ([1]; DNA 4, QD/TF/DNA 1/1/18): 0.017 µM
[Pro]min ([1]; DNA 4, QD/TF/DNA 1/4/9): 0.066 µM
[Pro]min ([1]; DNA 4, QD/TF/DNA 1/4/18): 0.044 µM
[Pro]min ([1]; DNA 4, QD/TF/DNA 1/16/8): 0.190 µM
[Pro]min ([1]; QD/TF/DNA=1/4/18, [QD]=25 nM): 0.044 µM

C[C@H](O)[C@H]1CC[C@H]2[C@@H]3CC[C@@H]4C[C@H](O)CC[C@]4(C)[C@H]3CC[C@]12C [PRE, 5β-Pregnane-3α,20-α-diol]
cross-reactivity (in words) [2]: No cross-reactivity was observed
cross-reactivity (PinR): No cross-reactivity

C[S+](C)[O-] [DMSO, dimethyl sulfoxide]
highest solvent concentration that did not produce a physiological change in growth (Pimelobacter simplex; P. simplex vs solvent-free control): 0.35 % by volume

— patent publication US11360104B2, “Microbial-based biosensors” (TRUSTEES OF BOSTON UNIVERSITY, priority 2017, dated 2022)
